Experimental data as given in patent US10039283B2, “Substituted pyrazolyl-nicotin(thio)amide derivatives and their use as fungicides” (BAYER CROPSCIENCE AKTIENGESELLSCHAFT, priority 2014, dated 2018).

Assay: Log P by HPLC on reversed phase, method [b], neutral range (0.001 molar ammonium acetate)
Format: physicochemical
Details: not given
Experimental: Measurement of Log P values was performed according to EEC directive 79/831 Annex V.A8 by HPLC (High Performance Liquid Chromatography) on reversed phase columns with the following methods: [b] Log P value is determined by measurement of LC-UV, in a neutral range, with 0.001 molar ammonium acetate solution in water and acetonitrile as eluent (linear gradient from 10% acetonitrile to 95% acetonitrile). Calibration was done with straight-chain alkan2-ones (with 3 to 16 carbon atoms) with known Log P values (measurement of Log P values using retention times with linear interpolation between successive alkanones). Lambda-max-values were determined using UV-spectra from 200 nm to 400 nm and the peak values of the chromatographic signals.

Row | SMILES | LogP
1 | O=C(Nc1cnn(-c2c(F)cccc2F)c1C(F)(F)F)c1cccnc1C(F)(F)F [Example 19] | 2.72^[b]
2 | O=C(Nc1cnn(-c2ccccc2Cl)c1C(F)(F)F)c1cccnc1C(F)(F)F [Example 20] | 2.80^[b]
3 | O=C(Nc1cnn(-c2c(F)cccc2F)c1C(F)(F)F)c1cccnc1C(F)F [Example 21] | 2.43^[b]
4 | Cc1c(NC(=O)c2cccnc2C(F)F)cnn1-c1ccccc1F [Example 22] | 1.68^[b]
5 | O=C(Nc1cnn(-c2ccccc2Cl)c1C(F)(F)F)c1cccnc1C(F)F [Example 77] | 2.53^[b]

Assay: Log P by HPLC on reversed phase, method [a], acidic range (0.1% formic acid)
Format: physicochemical
Details: LC-UV, 0.1% formic acid in water and acetonitrile

Row | SMILES | LogP
6 | O=C(Nc1cnn(-c2c(F)cccc2F)c1C(F)(F)F)c1cccnc1C(F)(F)F [Example 19] | 2.79^[a];
7 | O=C(Nc1cnn(-c2ccccc2Cl)c1C(F)(F)F)c1cccnc1C(F)(F)F [Example 20] | 2.87^[a];
8 | O=C(Nc1cnn(-c2c(F)cccc2F)c1C(F)(F)F)c1cccnc1C(F)F [Example 21] | 2.50^[a];
9 | Cc1c(NC(=O)c2cccnc2C(F)F)cnn1-c1ccccc1F [Example 22] | 1.71^[a];
10 | O=C(Nc1cnn(-c2ccccc2Cl)c1C(F)(F)F)c1cccnc1C(F)F [Example 77] | 2.58^[a];
11 | O=C(Nc1cnn(-c2ccc(Oc3ccccc3)cc2)c1C(F)(F)F)c1cccnc1C(F)F [Example 233] | 3.59^[a]
12 | O=C(Nc1cnn(-c2ccc(I)cc2)c1C(F)(F)F)c1cccnc1C(F)F [Example 234] | 3.25^[a]
13 | O=C(Nc1cnn(-c2ccc(Br)cc2)c1OCC(F)F)c1cccnc1C(F)F [Example 235] | 2.68^[a]
14 | O=C(Nc1cnn(-c2ccc(Cl)cc2)c1C(F)(F)F)c1cccnc1CF [Example 236] | 2.67^[a]
15 | Cc1ncccc1C(=O)Nc1cnn(-c2ccc(Cl)cc2)c1C(F)(F)F [Example 237] | 2.12^[a]
16 | Cc1cccc(-n2ncc(NC(=O)c3cc(C)cnc3C(F)F)c2C(C)C)c1 [Example 238] | 2.75^[a]
17 | CCc1c(NC(=O)c2cc(C)cnc2C(F)F)cnn1-c1cccc(C(F)(F)F)c1 [Example 239] | 2.94^[a]
18 | CCc1c(NC(=O)c2cc(C)cnc2C(F)F)cnn1-c1ccc(C(F)(F)F)cc1 [Example 240] | 3.00^[a]
19 | Cc1cnc(C(F)F)c(C(=O)Nc2cnn(-c3ccc(OC(F)(F)F)cc3)c2C)c1 [Example 241] | 2.86^[a]
20 | Cc1c(NC(=O)c2cccnc2C(F)F)cnn1-c1ccc(OC(F)(F)F)cc1 [Example 242] | 2.64^[a]
21 | O=C(Nc1cnn(-c2ccc(SC(F)(F)F)cc2)c1C(F)(F)F)c1cccnc1C(F)F [Example 243] | 3.68^[a]
22 | O=C(Nc1cnn(-c2ccc(Oc3ccc(Cl)cc3)cc2)c1C(F)(F)F)c1cccnc1C(F)F [Example 244] | 4.11^[a]
23 | Cc1ccc(Oc2ccc(-n3ncc(NC(=O)c4cccnc4C(F)F)c3C(F)(F)F)cc2)cc1 [Example 245] | 4.03^[a]
24 | CSc1ccc(-n2ncc(NC(=O)c3cccnc3C(F)F)c2C(F)(F)F)cc1 [Example 246] | 2.94^[a]
25 | O=C(Nc1cnn(-c2ccc(OC(F)(F)C(F)F)cc2)c1C(F)(F)F)c1cccnc1C(F)F [Example 247] | 3.19^[a]
26 | O=C(Nc1cnn(-c2ccc(Br)cc2)c1C(F)(F)F)c1cccnc1CF [Example 248] | 2.80^[a]
27 | Cc1ncccc1C(=O)Nc1cnn(-c2ccc(Br)cc2)c1C(F)(F)F [Example 249] | 2.28^[a]
28 | COCc1c(NC(=O)c2cc(C)cnc2C(F)F)cnn1-c1ccc(Br)cc1 [Example 250] | 2.80^[a]
29 | COCc1c(NC(=O)c2cccnc2C(F)F)cnn1-c1ccc(Br)cc1 [Example 251] | 2.58^[a]
30 | O=C(Nc1cnn(-c2ccc(Cl)c(Cl)c2)c1Cl)c1cccnc1C(F)F [Example 252] | 3.06^[a]
31 | O=C(Nc1cnn(-c2cc(F)c(F)c(F)c2)c1Cl)c1cccnc1C(F)F [Example 253] | 2.66^[a]
32 | O=C(Nc1cnn(-c2ccc(OC3CCCCC3)cc2)c1C(F)(F)F)c1cccnc1C(F)F [Example 254] | 4.11^[a]
33 | CCc1ccc(-n2ncc(NC(=O)c3cccnc3C(F)F)c2C(F)(F)F)cc1 [Example 255] | 3.19^[a]
